Values joined by “and” are separate entries in the source; they are usually repeats but may differ in a detail not shown here. Identical values can stand only once.
Tests used:
HepG2/C3A cells [1] = assay: TUNEL apoptosis assay; type: cell-based, human; conditions: 24 hours exposure to 200 μM
Procedure: (§1) PMDS microwell inserts were removed from the bioreactor following 24 hours exposure to rotenone or troglitazone. Cholestasis was evaluated using 5(6)-carboxy-2′, 7′-dichlorofluorescein diacetate (CDFDA) cell permeable dye which is metabolized to fluorescent CDF and secreted to active bile canaliculi by active multidrug resistance-associated protein 2 (MRP2). Briefly, cells were incubated with 2 μg/mL of CDFDA and 1 μg/mL of Hoechst 33342 for 20 min, and washed with PBS. Number of bile canaliculi foci was normalized for number of Hoechst-labeled nuclei. Apoptosis was evaluated using DeadEnd™ fluorometric TUNEL system (Promega, USA) according to manufacturer directions. Briefly, cells were fixed in 4% paraformaldehyde, permeabilized and exposed to fluorescein-12-dUTP and terminal deoxynucleotidyl transferase (TdT), dyeing apoptotic nuclei green. The reaction was subsequently stopped and the cells counterstained for Hoechst. A percent apoptotic nucleus was calculated by dividing the number of TUNEL to Hoechst positive nuclei.

HepG2/C3A cells [2] = assay: Quantification of ATP/ADP ratio; type: cell-based, human; conditions: 50 μM
Procedure: Intracellular ATP and ADP quantification was carried out using Abeam ADP/ATP Assay Kit (#ab65313), according to manufacturer's instructions. […] Cells were incubated in nucleotide releasing buffer for 5 min at room temperature, with gentle shaking. Background bioluminescence reading of the reaction mix was taken for calibration, followed by 2 min incubation of 50 μl sample solution in each reaction well, and a bioluminescence reading to measure cellular ATP content. ADP converting enzyme was then added, as instructed, following incubation of 2 min at room temperature to measure total ADP+ATP.

HepG2/C3A organoids = assay: LIVE/DEAD cell viability staining; type: cell-based; conditions: 50 μM, 24 hours
Procedure: Unless otherwise noted, cell viability was determined utilizing LIVE/DEAD Cytotoxicity kit (Molecular Probes, Eugene, Oreg.) according to manufacturer's instructions. In brief, cultures were incubated with 2 μM Calcein AM and 3 μM ethidium homodimer-1 for 25 minutes. Hydrolysis by functional intracellular esterases causes live cells to fluoresce green, while the punctured membranes of dead cells permit ethidium homodimer-1 to bind DNA and fluoresce red. Cellular viability was calculated by live to dead ratio and normalized to negative control.

HepG2/C3A cells [3] = assay: CDFDA staining for cholestasis (CDF retention, MRP2); type: cell-based, human; conditions: 24 hours exposure to 200 μM; due to inhibition of MRP2
Procedure: as §1

| SMILES | increase in apoptosis (TUNEL) (HepG2/C3A cells [1]) | decrease in ATP/ADP ratio (HepG2/C3A cells [2]) [%] | cell death (Live/Dead) (HepG2/C3A organoids) | cell viability compared with untreated control (HepG2/C3A organoids) | increase in intracellular accumulation of bile acids / CDF staining (cholestasis) (HepG2/C3A cells [3]) |
| --- | --- | --- | --- | --- | --- |
| C=C(C)[C@H]1Cc2c(ccc3c2O[C@@H]2COc4cc(OC)c(OC)cc4[C@@H]2C3=O)O1 [rotenone] | 14 fold and 14±2 fold | 47 | – | – | – |
| Cc1c(C)c2c(c(C)c1O)CCC(C)(COc1ccc(CC3SC(=O)NC3=O)cc1)O2 (centres unmarked) [troglitazone] | – | – | Less than 5% | not significantly different from untreated control | 4.5 fold and 4.5±0.6 fold |

— patent US20190086391A1, “METHOD AND SYSTEM FOR CONTINUOUS BIOSENSING” (Yissum Research Development Company of the Hebrew …, priority 2016, published 2019)
